Results reported in patent US20090005424A9, “Composition and Method for Treating Fibrotic Diseases” (priority 2005, published 2009).

What was measured:
[1] = tested on: TGF-β production and type I & III collagen accumulation in rat UUO model; test: Rat UUO model, immunohistochemistry of TGF-β and type I & III collagen; assay type: in vivo; conditions: kidney of UUO rats
Description: Similar to the example 8, Kidney fibrosis was induced by Unilateral Ureteral Obstruction. And the animal experiments were performed to investigate whether AKF-PD has any effect on TGF-β production and collagen accumulation. These are two known factors for fibrotic lesion.
As shown by FIG. 1, sections A-C were immunohistochemically stained with specific antibody against TGF-β with brown color indicating TGF-β protein expression in kidney cells. All sections were also counterstained lightly with hematoxylin for viewing non-TGF-β stained cells.
Also shown by FIG. 2, type I and III collagen were analyzed by immunohistochemistry. The typical fibrotic fiber was viewed as brown color. There are a […] accumulation of both type I (B) and type III (E) collagen on the fibrotic kidney of UUO model. […] Reduced collagen level can be interpreted as the reduced ECM.

[2] = tested on: Kun Ming (KM) mice infected with Schistosoma miracidium; test: Schistosomial liver fibrosis in Kun Ming mice, egg granuloma area and immunohistology; assay type: in vivo; conditions: for Schistosomo Egg Granuloma Area, Mean: all after Pyquiton 650 mg/kg 4 days, AKF-PD 500 mg/kg daily gavage, γ-interferon 50,000 unit daily i.m., 8 weeks
Source text: Kun Ming (KM) mice were infected with Schistosoma miracidium to induce schistosomial liver fibrosis. […] Ten Schistosoma miracidium were placed on shaved abdominal skin of each mouse for infection. […] Five hundred mg/kg AKF-PD were given daily by gavage to the disinfected mice of infected/AKF-PD group. The disinfected mice were given (i.m.) 50,000 unit γ-interferon daily. […] Drug or normal saline treatment was continued for 8 weeks. All mice were sacrificed one week after discontinue of drug treatment, and the left lobe of liver from each mouse was taken for pathological examination. Examination of HE-stained slices of liver tissue were carried out as follows. In general, after 16 weeks of Schistosoma miracidia infection, the area of schistosomo egg granuloma would directly correlate to the severity of liver fibrosis. Therefore, the area of schistosomo egg granuloma was measured using a high-resolution, color pathology graphic analyzer (HPIAS-1000). The sum of area of 5 granuloma with abundant eggs and the sum of area of 5 granuloma with few eggs were measured for each slice.

[3] = tested on: Sprague-Dawley rats, Bleomycin-induced pulmonary fibrosis; test: Bleomycin-induced rat pulmonary fibrosis, severity of fibrotic lesions; assay type: in vivo; conditions: AKF-PD 500 mg/kg daily by gavage; 27 days post surgery; total of 8 rats
Description: Bleomycin-induced rat pulmonary fibrosis is selected for testing 5-methyl-1-(3′-fluorophenyl)-2(1H)-pyridone (AKF-PD). Male Sprague-Dawley rats (6-8 weeks old, 180 g˜220 g) were cared under regular condition. The animals were randomly divided into 3 groups: sham surgical group, model disease group, and disease/AKF-PD group. Six mg/kg/4 ml of Bleomycin was slowly infused into the trachea of rats in the model disease and disease/AKF-PD groups. Same amount of normal saline was infused into the trachea of rats in the sham surgical group.
Five hundred mg/kg AKF-PD was directly administrated by gavage to rats in the disease/AKF-PD group daily from 2 days prior to operation through 27 days after operation. Normal saline was used for all animals in both disease and sham surgical groups. The animals were sacrificed at 27 days post surgery and the lung tissues were removed for pathological sample preparation. The HE-stained lung tissues from each rat were examined under microscope to determine the frequency and severity of fibrotic lesion. Evaluation of lung tissue fibrosis was carried out according to the method of Szapiel et al., Bleomycin-induced interstitial pulmonary disease in the nude, athymic mouse. Am. Rev. Respir. Dis. 120:893-9(1979).

[4] = tested on: Kun Ming (KM) mice; test: Acute oral toxicity in Kun Ming mice, LD50 by Bliss method; conditions: mouse, in vivo
Description: Male and female Kun Ming (KM) mice weighing between 18 g-22 g were acquired from the animal facility of Hsiang-Ya Medical College, the Central South University. Fifty Kun Ming mice were randomly assigned into 5 groups with 5 male and 5 female mice for each group. The animals went through fasting with a normal water supply before starting drug treatment (either AKF-PD or PIRFENIDONE). The drug was administrated orally by gavage. The volume of liquid drug was 20 ml/kg body weight. The range of dosage for AKF-PD administrated was from 1071 mg/kg to 6000 mg/kg. The dosage difference between two adjacent doses was 1:0.65 (a dose vs the next lower dose). All animals were maintained under a regular condition. Acute toxic reaction and death within 14 days of post drug treatment were recorded. Autopsy was performed on all dead animals and visual examination was performed on all organs.
LD50 was calculated according to Bliss method. […] The results of Table 15 are very close to those reported in the literature: 997.7 mg/kg (U.S. Pat. No. 5,310,562) and 1112 mg/kg(Pharmaceutical Care and Research 5:4823(2005)).

[5] = tested on: fibroblast; test: Inhibition of fibroblast, side-by-side comparison of substituents; assay type: cell-based; conditions: structural formula II, n=1
[6] = compared with pyquiton and Interferon-γ treated

## Cc1ccc(=O)n(-c2cccc(F)c2)c1 [AKF-PD, 1-(3′-fluorophenyl)-5-methyl-2(1H)-pyridone]
[1]
  TGF-β production (immunohistochemistry, FIG. 1): significantly reduced TGF-β production
  type I and III collagen accumulation or production (immunohistochemistry, FIG. 2): significantly blocks type I and III collagen accumulation or production
[2]; [6]
  fibrotic nodule (immunohistological staining, FIG. 3): much reduced fibrotic nodule
  type I collagen accumulation (immunohistological staining, FIG. 4): much less type I collagen accumulation
[2]; granuloma with abundant eggs
  Schistosomo Egg Granuloma Area, Mean: 80155.11 μm^2
[2]; granuloma with few eggs
  Schistosomo Egg Granuloma Area, Mean: 30266.68 μm^2
[3]
  Number of rats with Severity of Fibrosis: Milder: 6
  Number of rats with Severity of Fibrosis: Moderate: 1
  Number of rats with Severity of Fibrosis: None: 0
  Number of rats with Severity of Fibrosis: Sever: 1
[4]; both, Kun Ming (KM), 14 days
  LD50 as percent of that of PIRFENIDONE: 30%
[4]; both, Kun Ming (KM), po, 14 days
  LD50 95% confidence limit: (2402.70 − 3695.73) mg/kg
[4]
  toxicity relative to that of PIRFENIDONE: one third
[5]
  activity inhibiting fibroblast: activities inhibiting fibroblast
